Reference: patent US20220251141A1, “IMMUNOMODULATORS” (Bristol-Myers Squibb Company, priority 2019, published 2022)
pIC50: −log10 of the molar value. Counter-ions that a name gives are not always drawn. Numbered stars: 1 amine (or outer) side, 2 acyl side, 3 side chain; on linkers, the order of the positions; unused ones are H or OH. Bridge positions count the residues as written; N and C are the ends. Square brackets hold non-standard residues; d marks the D form. Peptide text beside a SMILES is read from it. * marks the point of attachment. Trp(1-CH2CO2Me) = COC(=O)Cn1cc(C[C@H](N)C(=O)O)c2ccccc21; Trp(1-CH2COOH) = N[C@@H](Cc1cn(CC(=O)O)c2ccccc12)C(=O)O; X2 = C/C(=N\C#N)NC[C@H](N[*:1])C(=O)[*:2]; Octyloxycarbonyl = CCCCCCCCOC(=O)*; Hexyloxycarbonyl = CCCCCCOC(=O)*; Hyp = O=C(O)[C@@H]1C[C@@H](O)CN1; Myristoyl = CCCCCCCCCCCCCC(=O)*; NMeNle = CCCC[C@H](NC)C(=O)O; Decanoyl = CCCCCCCCCC(=O)*; Ethoxycarbonyl = CCOC(=O)*; NMeA = CN[C@@H](C)C(=O)O; Dab = NCC[C@H](N)C(=O)O; X13 = CCCCCCCCCCOC(=O)*; Dap = NC[C@H](N)C(=O)O; Hexanoyl = CCCCCC(=O)*; Boc = CC(C)(C)OC(=O)*; Tfa = O=C(C(F)(F)F)*; X3 = O=C(OCCF)*

Target: T1, PD-1/PD-L1 (Homo sapiens, UniProt Q9NZQ7)
T1 construct: TVMV protease site linker (C); made in house; host or cells: HEK293T cells
Assay: PD-1/PD-L1 Homogenous Time-Resolved Fluorescence (HTRF) binding assay
Settings: PD-L1-His 10 nM final, PD-1-Ig 20 nM final; inhibitors pre-incubated with PD-L1-His for 15 m
From the text: The ability of the compounds of formula (I) to bind to PD-L1 was investigated using a PD-1/PD-L1 Homogenous Time-Resolved Fluorescence (HTRF) binding assay.
The interaction of PD-1 and PD-L1 can be assessed using soluble, purified preparations of the extracellular domains of the two proteins. The PD-1 and PD-L1 protein extracellular domains were expressed as fusion proteins with detection tags, for PD-1, the tag was the Fc portion of Immunoglobulin (PD-1-Ig) and for PD-L1 it was the 6 histidine motif (PD-L1-His). All binding studies were performed in an HTRF assay buffer consisting of dPBS supplemented with 0.1% […] bovine serum albumin and 0.05% (v/v) Tween-20. For the h/PD-L1-His binding assay, inhibitors were pre-incubated with PD-L1-His (10 nM final) for 15 m in 4 μl of assay buffer, followed by addition of PD-1-Ig (20 nM final) in 1 μl of assay buffer and further incubation for 15 m. HTRF detection was achieved using europium cryptate-labeled anti-Ig (1 nM final) and allophycocyanin (APC) labeled anti-His (20 nM final). Antibodies were diluted in HTRF detection buffer and 5 μl was dispensed on top of the binding reaction. The reaction mixture was allowed to equilibrate for 30 minutes and the resulting signal (665 nm/620 nm ratio) was obtained using an EnVision fluorometer. Additional binding assays were established between the human proteins PD-1-Ig/PD-L2-His (20 & 5 nM, respectively) and CD80-His/PD-L1-Ig (100 & 10 nM, respectively).
Recombinant Proteins: Human PD-1 (25-167) with a C-terminal human Fc domain of immunoglobulin G (Ig) epitope tag [hPD-1 (25-167)-3S-IG] and human PD-L1 (18-239) with a C-terminal His epitope tag [hPD-L1(18-239)-TVMV-His] were expressed in HEK293T cells and purified sequentially by Protein A affinity chromatography and size exclusion chromatography. Human PD-L2-His and CD80-His was obtained through commercial sources.
Table 3 lists the IC50 values for representative examples of this disclosure measured in the PD-1/PD-L1 Homogenous Time-Resolved Fluorescence (HTRF) binding assay.

| pIC50 | SMILES |
| --- | --- |
| 7.43 | CCCCCCCCCC(=O)NCC[C@@H]1NC(=O)[C@H](Cc2c[nH]c3ccccc23)NC(=O)[C@@H]2C[C@@H](O)CN2C(=O)[C@H](CC(C)C)NC(=O)[C@H](CNC(=O)CCCCCCCCC)NC(=O)[C@@H]2CCCN2C(=O)[C@H](CC(N)=O)NC(=O)[C@H](C)N(C)C(=O)[C@H](Cc2ccc(O)cc2)NC(=O)CSC[C@@H](C(=O)NCC(N)=O)NC(=O)[C@H](CC(C)C)NC(=O)[C@H](CCCC)N(C)C(=O)[C@H](CCCC)N(C)C(=O)[C@H](Cc2cn(CC(=O)O)c3ccccc23)NC1=O [Example 1003] ({CH2CO}-Y[NMeA]NP[Dap](Decanoyl)L[Hyp]W[Dab](Decanoyl)[Trp(1-CH2COOH)][NMeNle][NMeNle]LCG-NH2; thioether N-14) |
| < 5.00 | CCCCCCCCCC(=O)NCC[C@@H]1NC(=O)[C@H](Cc2c[nH]c3ccccc23)NC(=O)[C@@H]2C[C@@H](O)CN2C(=O)[C@H](CC(C)C)NC(=O)[C@H](CNC(=O)CCCCCCCCC)NC(=O)[C@@H]2CCCN2C(=O)[C@H](CC(N)=O)NC(=O)[C@H](C)N(C)C(=O)[C@H](Cc2ccc(O)cc2)NC(=O)CSC[C@@H](C(=O)NCC(N)=O)NC(=O)[C@H](CC(C)C)NC(=O)[C@H](CCCC)N(C)C(=O)[C@H](CCCC)N(C)C(=O)[C@H](Cc2cn(CC(=O)OC)c3ccccc23)NC1=O [Example 1004] ({CH2CO}-Y[NMeA]NP[Dap](Decanoyl)L[Hyp]W[Dab](Decanoyl)[Trp(1-CH2CO2Me)][NMeNle][NMeNle]LCG-NH2; thioether N-14) |
| < 5.00 | CCCCCCCCCCCCCC(=O)NCC[C@@H]1NC(=O)[C@H](Cc2c[nH]c3ccccc23)NC(=O)[C@@H]2C[C@@H](O)CN2C(=O)[C@H](CC(C)C)NC(=O)[C@H](CNC(=O)CCCCCCCCCCCCC)NC(=O)[C@@H]2CCCN2C(=O)[C@H](CC(N)=O)NC(=O)[C@H](C)N(C)C(=O)[C@H](Cc2ccc(O)cc2)NC(=O)CSC[C@@H](C(=O)NCC(N)=O)NC(=O)[C@H](CC(C)C)NC(=O)[C@H](CCCC)N(C)C(=O)[C@H](CCCC)N(C)C(=O)[C@H](Cc2cn(CC(=O)OC)c3ccccc23)NC1=O [Example 1005] ({CH2CO}-Y[NMeA]NP[Dap](Myristoyl)L[Hyp]W[Dab](Myristoyl)[Trp(1-CH2CO2Me)][NMeNle][NMeNle]LCG-NH2; thioether N-14) |
| 7.66 | CCCCCC(=O)NCC[C@@H]1NC(=O)[C@H](Cc2c[nH]c3ccccc23)NC(=O)[C@@H]2C[C@@H](O)CN2C(=O)[C@H](CC(C)C)NC(=O)[C@H](CNC(=O)CCCCC)NC(=O)[C@@H]2CCCN2C(=O)[C@H](CC(N)=O)NC(=O)[C@H](C)N(C)C(=O)[C@H](Cc2ccc(O)cc2)NC(=O)CSC[C@@H](C(=O)NCC(N)=O)NC(=O)[C@H](CC(C)C)NC(=O)[C@H](CCCC)N(C)C(=O)[C@H](CCCC)N(C)C(=O)[C@H](Cc2cn(CC(=O)OC)c3ccccc23)NC1=O [Example 1006] ({CH2CO}-Y[NMeA]NP[Dap](Hexanoyl)L[Hyp]W[Dab](Hexanoyl)[Trp(1-CH2CO2Me)][NMeNle][NMeNle]LCG-NH2; thioether N-14) |
| 8.26 | CCCC[C@H]1C(=O)N(C)[C@@H](CCCC)C(=O)N[C@@H](CC(C)C)C(=O)N[C@H](C(=O)NCC(N)=O)CSCC(=O)N[C@@H](Cc2ccc(O)cc2)C(=O)N(C)[C@@H](C)C(=O)N[C@@H](CC(N)=O)C(=O)N2CCC[C@H]2C(=O)N[C@@H](CN/C(C)=N/C#N)C(=O)N[C@@H](CC(C)C)C(=O)N2C[C@H](O)C[C@H]2C(=O)N[C@@H](Cc2c[nH]c3ccccc23)C(=O)N[C@@H](CCN)C(=O)N[C@@H](Cc2cn(CC(=O)O)c3ccccc23)C(=O)N1C [Example 1009] ({CH2CO}-Y[NMeA]NP[X2]L[Hyp]W[Dab][Trp(1-CH2COOH)][NMeNle][NMeNle]LCG-NH2; thioether N-14) |
| 8.41 | CCCC[C@H]1C(=O)N(C)[C@@H](CCCC)C(=O)N[C@@H](CC(C)C)C(=O)N[C@H](C(=O)NCC(N)=O)CSCC(=O)N[C@@H](Cc2ccc(O)cc2)C(=O)N(C)[C@@H](C)C(=O)N[C@@H](CC(N)=O)C(=O)N2CCC[C@H]2C(=O)N[C@@H](CNC(=O)OCC)C(=O)N[C@@H](CC(C)C)C(=O)N2C[C@H](O)C[C@H]2C(=O)N[C@@H](Cc2c[nH]c3ccccc23)C(=O)N[C@@H](CCNC(=O)OCC)C(=O)N[C@@H](Cc2cn(CC(=O)OC)c3ccccc23)C(=O)N1C [Example 1010] ({CH2CO}-Y[NMeA]NP[Dap](Ethoxycarbonyl)L[Hyp]W[Dab](Ethoxycarbonyl)[Trp(1-CH2CO2Me)][NMeNle][NMeNle]LCG-NH2; thioether N-14) |
| 7.72 | CCCC[C@H]1C(=O)N(C)[C@@H](CCCC)C(=O)N[C@@H](CC(C)C)C(=O)N[C@H](C(=O)NCC(N)=O)CSCC(=O)N[C@@H](Cc2ccc(O)cc2)C(=O)N(C)[C@@H](C)C(=O)N[C@@H](CC(N)=O)C(=O)N2CCC[C@H]2C(=O)N[C@@H](CNC(=O)OCCF)C(=O)N[C@@H](CC(C)C)C(=O)N2C[C@H](O)C[C@H]2C(=O)N[C@@H](Cc2c[nH]c3ccccc23)C(=O)N[C@@H](CCNC(=O)OCCF)C(=O)N[C@@H](Cc2cn(CC(=O)OC)c3ccccc23)C(=O)N1C [Example 1012] ({CH2CO}-Y[NMeA]NP[Dap](X3)L[Hyp]W[Dab](X3)[Trp(1-CH2CO2Me)][NMeNle][NMeNle]LCG-NH2; thioether N-14) |
| 5.96 | CCCCCCCCOC(=O)NCC[C@@H]1NC(=O)[C@H](Cc2c[nH]c3ccccc23)NC(=O)[C@@H]2C[C@@H](O)CN2C(=O)[C@H](CC(C)C)NC(=O)[C@H](CNC(=O)OCCCCCCCC)NC(=O)[C@@H]2CCCN2C(=O)[C@H](CC(N)=O)NC(=O)[C@H](C)N(C)C(=O)[C@H](Cc2ccc(O)cc2)NC(=O)CSC[C@@H](C(=O)NCC(N)=O)NC(=O)[C@H](CC(C)C)NC(=O)[C@H](CCCC)N(C)C(=O)[C@H](CCCC)N(C)C(=O)[C@H](Cc2cn(CC(=O)OC)c3ccccc23)NC1=O [Example 1013] ({CH2CO}-Y[NMeA]NP[Dap](Octyloxycarbonyl)L[Hyp]W[Dab](Octyloxycarbonyl)[Trp(1-CH2CO2Me)][NMeNle][NMeNle]LCG-NH2; thioether N-14) |
| 8.21 | CCCC[C@H]1C(=O)N(C)[C@@H](CCCC)C(=O)N[C@@H](CC(C)C)C(=O)N[C@H](C(=O)NCC(N)=O)CSCC(=O)N[C@@H](Cc2ccc(O)cc2)C(=O)N(C)[C@@H](C)C(=O)N[C@@H](CC(N)=O)C(=O)N2CCC[C@H]2C(=O)N[C@@H](CNC(=O)OC(C)(C)C)C(=O)N[C@@H](CC(C)C)C(=O)N2C[C@H](O)C[C@H]2C(=O)N[C@@H](Cc2c[nH]c3ccccc23)C(=O)N[C@@H](CCNC(=O)OC(C)(C)C)C(=O)N[C@@H](Cc2cn(CC(=O)O)c3ccccc23)C(=O)N1C [Example 1014] ({CH2CO}-Y[NMeA]NP[Dap](Boc)L[Hyp]W[Dab](Boc)[Trp(1-CH2COOH)][NMeNle][NMeNle]LCG-NH2; thioether N-14) |
| < 5.00 | CCCCCCCCCCOC(=O)NCC[C@@H]1NC(=O)[C@H](Cc2c[nH]c3ccccc23)NC(=O)[C@@H]2C[C@@H](O)CN2C(=O)[C@H](CC(C)C)NC(=O)[C@H](CNC(=O)OCCCCCCCCCC)NC(=O)[C@@H]2CCCN2C(=O)[C@H](CC(N)=O)NC(=O)[C@H](C)N(C)C(=O)[C@H](Cc2ccc(O)cc2)NC(=O)CSC[C@@H](C(=O)NCC(N)=O)NC(=O)[C@H](CC(C)C)NC(=O)[C@H](CCCC)N(C)C(=O)[C@H](CCCC)N(C)C(=O)[C@H](Cc2cn(CC(=O)OC)c3ccccc23)NC1=O [Example 1015] ({CH2CO}-Y[NMeA]NP[Dap](X13)L[Hyp]W[Dab](X13)[Trp(1-CH2CO2Me)][NMeNle][NMeNle]LCG-NH2; thioether N-14) |
| 7.92 | CCCCCCOC(=O)NCC[C@@H]1NC(=O)[C@H](Cc2c[nH]c3ccccc23)NC(=O)[C@@H]2C[C@@H](O)CN2C(=O)[C@H](CC(C)C)NC(=O)[C@H](CNC(=O)OCCCCCC)NC(=O)[C@@H]2CCCN2C(=O)[C@H](CC(N)=O)NC(=O)[C@H](C)N(C)C(=O)[C@H](Cc2ccc(O)cc2)NC(=O)CSC[C@@H](C(=O)NCC(N)=O)NC(=O)[C@H](CC(C)C)NC(=O)[C@H](CCCC)N(C)C(=O)[C@H](CCCC)N(C)C(=O)[C@H](Cc2cn(CC(=O)OC)c3ccccc23)NC1=O [Example 1016] ({CH2CO}-Y[NMeA]NP[Dap](Hexyloxycarbonyl)L[Hyp]W[Dab](Hexyloxycarbonyl)[Trp(1-CH2CO2Me)][NMeNle][NMeNle]LCG-NH2; thioether N-14) |

| SMILES | pIC50 |
| --- | --- |
| CCCC[C@H]1C(=O)N(C)[C@@H](CCCC)C(=O)N[C@@H](CC(C)C)C(=O)N[C@H](C(=O)NCC(N)=O)CSCC(=O)N[C@@H](Cc2ccc(O)cc2)C(=O)N(C)[C@@H](C)C(=O)N[C@@H](CC(N)=O)C(=O)N2CCC[C@H]2C(=O)N[C@@H](CNC(=O)C(F)(F)F)C(=O)N[C@@H](CC(C)C)C(=O)N2C[C@H](O)C[C@H]2C(=O)N[C@@H](Cc2c[nH]c3ccccc23)C(=O)N[C@@H](CCNC(=O)C(F)(F)F)C(=O)N[C@@H](Cc2cn(CC(=O)O)c3ccccc23)C(=O)N1C [Example 1007] ({CH2CO}-Y[NMeA]NP[Dap](Tfa)L[Hyp]W[Dab](Tfa)[Trp(1-CH2COOH)][NMeNle][NMeNle]LCG-NH2; thioether N-14) | 8.48 |
